Laboratory results taken from article PMC10726920 (Cancer Medicine, 2023).

Test: Pearson correlation of sapanisertib clearance with toxicity and group variables
Format: in vivo, human
Conditions: p > 0.05
Description: Blood samples were obtained on Days 1, 2, and 8 of Cycle 1. […] plasma concentrations were measured using liquid chromatography‐mass spectroscopy. Plasma concentration‐time data were analyzed by standard methods using WinNonlin. Pearson's correlation coefficient (r) was used to assess correlation of group variables. Statistical significance was defined as p < 0.05. Additional details are contained in the Supplementary Method: Data S1.
Statistical significance was defined as P<0.05.

CC(C)n1nc(-c2ccc3oc(N)nc3c2)c2c(N)ncnc21 [sapanisertib]
correlation between systemic clearance and sex, age, or total body weight: no significant correlation
